In article PMC12607897, “Inhibition of HIV-1 replication by primer RNA packaging inhibitors” (mBio, 2025):

Legend:
[1] = tested on: HIV-1 NL4-3 virus produced in MT4 cells; assay: infectivity of virus particles by the CPRG method in HeLa P4 cells; format: cell-based; settings: viruses recovered after MT4 cells were exposed to 10 µM drugs
Procedure: We used the CPRG method developed in HeLa P4 cells grown in 96-well plates to measure the infectivity of virus particles, as low levels of virus were recovered after exposure of infected MT4 cells to different drug concentrations. In this assay, expression of the LacZ gene is under the control of the HIV-1 LTR, and its level of trans-activation correlates with the level of expression of HIV-1 Tat. HeLa P4 cells were incubated with normalized amounts of virus as measured by the P24 assay, and the expression of β-galactosidase was determined by the CPRG assay (Fig. 5).
Fig 5 Infectivity of newly formed HIV-1 particles produced in the presence of drugs. MT4 cells were infected with the NL4-3 virus. […] The infectivity of HIV-1 viruses was determined by the CPRG method. […]
Replication of the NL4-3 virus was determined either by the ELISA technique or in HeLa-P4 cells by the CPRG method as described previously ([29]). These are HeLa CD4 LTR-lacZ cells in which the expression of lacZ is induced by the HIV transactivator Tat, allowing precise quantification of the infectivity of HIV-1. The viral titer was determined by quantifying β-galactosidase activity in HeLa-P4 lysates in a colorimetric assay based on the cleavage of chlorophenol red-β-D-galactopyranoside (CPRG) by β-galactosidase. The cytotoxicity is evaluated by the MTT assay.

[2] = molecular target: T1, mLysRS:IN interaction (human mLysRS, HIV-1 IN) (UniProt P12497+Q15046); assay: HTRF assay of mLysRS:IN interaction; format: binding, human / HIV-1; settings: HTRF; mLysRS 1.5 nM dimer, IN 25 nM dimer; read-out: half-maximal inhibitory concentration (IC50) in the mLysRS:IN assay
T1 construct: made in house
T1 sequence (Q15046 other isoform, or with tags, fused parts or gaps, other chains not shown): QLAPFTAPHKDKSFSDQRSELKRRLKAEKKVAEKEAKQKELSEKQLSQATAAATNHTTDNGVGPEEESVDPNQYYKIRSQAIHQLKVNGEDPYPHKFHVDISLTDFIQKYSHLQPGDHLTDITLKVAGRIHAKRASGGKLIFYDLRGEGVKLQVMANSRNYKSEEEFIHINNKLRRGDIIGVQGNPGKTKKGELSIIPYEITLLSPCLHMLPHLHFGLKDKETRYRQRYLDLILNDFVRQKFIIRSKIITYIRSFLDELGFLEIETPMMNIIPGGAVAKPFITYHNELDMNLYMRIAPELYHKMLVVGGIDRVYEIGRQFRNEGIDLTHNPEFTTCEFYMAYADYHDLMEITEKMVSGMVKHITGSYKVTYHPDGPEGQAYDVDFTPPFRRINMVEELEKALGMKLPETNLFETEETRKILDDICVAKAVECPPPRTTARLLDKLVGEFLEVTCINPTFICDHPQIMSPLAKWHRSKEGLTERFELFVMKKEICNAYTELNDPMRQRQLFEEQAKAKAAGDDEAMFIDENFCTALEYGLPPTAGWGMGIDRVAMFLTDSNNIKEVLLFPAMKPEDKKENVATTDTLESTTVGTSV
Procedure: Fig 1 Determination of the half-maximal inhibitory concentration (IC50) of the drugs in the mLysRS:IN binding assay. The binding of mLysRS to IN (red) or p38 (blue) was monitored in the HTRF assay in the presence of increasing drug concentrations (9–1,000 µM). The experimental values (symbols) were fitted (curves) to the equation Y = Ymin + {(Ymax − Ymin)/[1 + (X/IC50)^n]}, where n is the Hill coefficient. […] Proteins were isolated as described previously ([4]). Several batches of IN were used throughout this study. […] The molecules are dissolved in DMSO at a final concentration of 10 mM. After a 1 h incubation on ice, antibodies (Cisbio) directed to the His-tag and conjugated with Eu^3+ cryptate (Cisbio #61HISKLB) and the HA-tag conjugated with XL665 (Cisbio #610HAXLB) were added, and incubation was continued for 30 min. After the addition of 50 mM KF, fluorescence of Eu^3+ cryptate and of XL665 was recorded at 620 nm (I620) and 665 nm (I665), respectively, following excitation of Eu^3+ cryptate at 317 nm, in an Infinite M1000 PRO microplate reader (TECAN). The results were expressed as the ratio of I665/I620.

[3] = tested on: HIV-1 NLENG1-IRES-GFP (NL4-3-GFP) virus in MT4 cells; assay: ex vivo HIV-1 replication assay, GFP expression by flow cytometry in infected MT4 cells (multiple cycles); format: cell-based; settings: drug 10 µM, added 36–48 h after infection, read 72 h later
Procedure: To test this hypothesis, azelastine, lacidipine, and cilnidipine were used in an ex vivo assay to determine their effect on HIV-1 proliferation. MT4 cells were infected with NLENG1-IRES-GFP, a virus that allows for multiple cycles of infection, and the molecules were added to the medium 36–48 h after infection, before the completion of the first round of viral infection; 72 h after the drugs were added, when two rounds of HIV-1 infection were underway, the level of GFP fluorescence was determined by flow cytometry, as a marker of HIV-1 infection (Fig. 3, left panel). HIV-1 replication was inhibited in a dose-dependent manner. […]. […] At the same time, no drug toxicity was observed, as determined by the MTT assay (Fig. 3, right panel). […] The selectivity index (SI) ([24]) of the three drugs, defined as the ratio of 50% cytotoxic concentration (CC50; >20 µM) to 50% inhibitory concentration (IC50; ~5 µM), >4.
Fig 3 Effect of the inhibitors on HIV-1 replication and cell toxicity. MT4 cells were infected with NL4-3-GFP virus. Two days after infection, inhibitors were added to the culture medium at final concentrations of 1, 3.3, or 10 µM. The final concentration of DMSO was 0.1%. Five days after infection, GFP expression was quantified by flow cytometry, and cell viability was determined by the MTT assay. NInf corresponds to non-infected cells. Six independent experiments were performed, and standard deviations are shown. A Student t-test was used to determine statistical significance compared with the control experiment with DMSO (*: P < 0.001; **: P < 0.0001).
MT4 cell line ([26]) was maintained in RPMI 1640. HEK293T and HeLa-P4 cells ([27]) were maintained in Dulbecco’s modified Eagle medium (DMEM). All media were supplemented with Glutamax and with 10% heat-inactivated fetal calf serum (Hyclone) and 1% penicillin/streptomycin (100 units/mL) (Gibco). All media were purchased from Gibco (Life Technologies Co.). All cell lines used here were incubated at 37 °C, under 5% CO2 atmosphere. HIV-1 stocks were prepared by calcium phosphate-mediated transfection of HEK293T cells, as previously described ([22]), with shuttle vector plasmids encoding HIV-1 NL4-3 (GenBank: AF324493.1) or NLENG1-IRES-GFP ([28]). The latter vector comes from the HIV NL4-3 strain and contains a gfp-IRES-nef cassette at the nef locus. […].
For NL4-3-GFP vectors, viral infection is followed by GFP expression (i.e., the percentage and geometric mean fluorescence intensity [MFI] of GFP^+ cells). Infectivity was estimated by flow cytometry using a FACS Celesta flow cytometer (BD Biosciences). Toxicity is also assessed by flow cytometry (side and forward scatter).

Compound: CN1CCCC(n2nc(Cc3ccc(Cl)cc3)c3ccccc3c2=O)CC1 (stereo not drawn) [azelastine]
- infectivity of viruses compared with wild-type viruses [1]: less than 4%
- IC50 [2]: 340 ± 50 µM
- GFP fluorescence, % of the value observed when DMSO was added alone [3]: 15.2%
